Data set [1] addresses T1, Recombinant ROCK2 (amino acids 5-554) (Homo sapiens, UniProt O75116).
T1 construct: ROCK2 (amino acids 5-554)
The data set can be described thus: ROCK inhibition assay, LANCE Ultra TR-FRET (ROCK2). Format: biochemical. To be noted: 1 mM of ATP.

The nature of data set [2]: Blood-brain barrier penetration, brain-to-plasma ratio in rat. Format: in vivo. To be noted: Sprague-Dawley rat, IV 1 mg/kg, n=3. As for the experimental part:
(§1) The concentrations of compounds of (1) in blood and brain were measured from plasma and brain samples taken 0.25 and 2 hours after intravenous (IV) administration of the compounds of (1) at 1 mg/kg in CD-1 mouse and Sprague-Dawley rat (n=3). After euthanizing the mouse and rat, blood samples from cardiac puncture and brain tissue were collected. Plasma or brain homogenate was vortexed for 1 min. with internal standard in Methanol/Acetonitrile (1:1, v/v), and centrifuged at 4000-4500 rpm for 15 min. at room temperature to precipitate proteins. Subsequently, the supernatant was introduced into the LC/MS/MS system. An AB Sciex API 5500 mass spectrometer system (Sciex, USA) was used for quantitative analysis. The concentrations compounds of (1) in plasma and brain sample were determined using the standard calibration curve and brain-to-plasma concentration ratio was calculated.

Data set [3] deals with T2, Recombinant ROCK1 (amino acids 1-477) (Homo sapiens, UniProt Q13464).
T2 construct: Recombinant ROCK1 (amino acids 1-477)
T2 sequence (Q13464 1-477): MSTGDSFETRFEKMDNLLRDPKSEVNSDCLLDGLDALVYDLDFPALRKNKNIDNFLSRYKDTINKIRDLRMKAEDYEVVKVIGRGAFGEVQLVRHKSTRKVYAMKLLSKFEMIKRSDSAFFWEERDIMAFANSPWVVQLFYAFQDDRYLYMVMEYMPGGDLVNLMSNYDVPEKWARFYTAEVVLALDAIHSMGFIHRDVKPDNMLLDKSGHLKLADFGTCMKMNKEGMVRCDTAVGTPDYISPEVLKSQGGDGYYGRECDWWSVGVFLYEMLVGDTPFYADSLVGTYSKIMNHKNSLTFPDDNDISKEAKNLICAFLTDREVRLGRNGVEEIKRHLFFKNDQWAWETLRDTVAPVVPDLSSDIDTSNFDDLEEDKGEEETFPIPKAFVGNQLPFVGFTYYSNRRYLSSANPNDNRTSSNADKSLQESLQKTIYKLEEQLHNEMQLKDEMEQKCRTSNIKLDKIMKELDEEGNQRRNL
Kind of data set: ROCK inhibition assay, LANCE Ultra TR-FRET (ROCK1). Format: biochemical. To be noted: 1 mM of ATP.

Data set [4] can be described thus: Blood-brain barrier penetration, brain-to-plasma ratio in mouse. Format: in vivo. To be noted: CD-1 mouse, IV 1 mg/kg, n=3. As for the experimental part:
as §1

T1 sequence (O75116 5-554): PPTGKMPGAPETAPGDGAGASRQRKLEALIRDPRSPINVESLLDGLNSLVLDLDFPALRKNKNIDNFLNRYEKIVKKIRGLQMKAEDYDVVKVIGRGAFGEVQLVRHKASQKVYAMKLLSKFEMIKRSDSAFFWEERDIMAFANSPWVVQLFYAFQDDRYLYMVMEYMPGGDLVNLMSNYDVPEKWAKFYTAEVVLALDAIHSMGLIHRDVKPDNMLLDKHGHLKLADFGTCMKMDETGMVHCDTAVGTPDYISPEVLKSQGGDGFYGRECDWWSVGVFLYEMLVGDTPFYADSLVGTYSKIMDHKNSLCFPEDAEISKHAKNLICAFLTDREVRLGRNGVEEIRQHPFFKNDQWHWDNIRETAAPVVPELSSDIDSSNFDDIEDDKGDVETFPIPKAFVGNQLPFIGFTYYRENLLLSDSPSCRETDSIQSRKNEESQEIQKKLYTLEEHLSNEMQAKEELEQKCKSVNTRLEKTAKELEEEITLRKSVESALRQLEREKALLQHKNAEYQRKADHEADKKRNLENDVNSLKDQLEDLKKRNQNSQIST

As a reminder, the IC50 is the midpoint of a concentration-inhibition curve. For orientation: Kp means tissue or fluid exposure divided by exposure in the circulation. As to `CNCCn1cc(C(=O)C2COc3ccc(OC)cc3C2)c2ccc(-c3cn[nH]c3F)cc21` (stereo not drawn) [Compound 3-24], the IC50 was 21 to 200 nM in data set [1] and above 501 nM in data set [3]. Moreover, the Kp at 0.25 h in data set [2] came to 1.37; in data set [4], 0.96. Besides, the Kp at 2 h in data set [2] came to 1.38; in data set [4] it was 0.54.

On to `CN1CC[C@@H]1Cn1cc(C(=O)C2COc3ccc(Cl)cc3C2)c2ccc(-c3cn[nH]c3Cl)cc21` (stereo partly drawn) [Compound 1-55], for which the IC50 is below 20 nM in data set [1] and above 501 nM in data set [3]. Also, the Kp at 0.25 h amounted to 0.4 in data set [2] and 0.67 in data set [4]. Further, the Kp at 2 h in data set [2] amounted to 0.59; in data set [4], 0.8.

For the compound `CN1CC[C@H]1Cn1nc(C(=O)C2COc3ccc(F)cc3C2)c2ccc(-c3c[nH]nc3F)cc21` (stereo partly drawn) [Compound 5-56], the results for the IC50 in data set [1] and in data set [3] were 21 to 200 nM and above 501 nM, respectively. In addition, the Kp at 0.25 h in data set [2] stood at 12.4; in data set [4], 7.32. Besides, the values for the Kp at 2 h in data set [2] and in data set [4] were 20.2 and 10.2, respectively.

On to `CCN(CC)CCn1cc(C(=O)C2COc3ccc(OC)cc3C2)c2ccc(-c3cn[nH]c3Cl)cc21` (stereo not drawn) [Compound 3-17], for which the IC50 was 21 to 200 nM in data set [1] and above 501 nM in data set [3]. For the same compound, the figures for the Kp at 0.25 h in data set [2] and in data set [4] were 1.05 and 0.73, respectively. The Kp at 2 h came to 0.98 in data set [2] and 0.92 in data set [4].

Consider `CN(C)CCn1nc(C(=O)C2COc3ccc(F)cc3C2)c2ccc(-c3c[nH]nc3Cl)cc21` (stereo not drawn) [Compound 5-52], for which the results for the IC50 in data set [1] and in data set [3] were below 20 nM and 201 to 500 nM, respectively.

Consider `COc1[nH]ncc1-c1ccc2c(C(=O)C3COc4ccc(Cl)cc4C3)cn(CCN(C)C)c2c1` (stereo not drawn) [Compound 5-28], for which the half-maximal inhibitory concentration (IC50) in data set [1] is below 20 nM; in data set [3], above 501 nM.

Consider `COc1n[nH]cc1-c1ccc2c(C(=O)[C@H]3COc4ccc(Cl)cc4C3)nn(CCN(C)C)c2c1` [Compound 5-47], for which the IC50 in data set [1] is 21 to 200 nM; in data set [3] it was above 501 nM.

For `CCN(C)CCn1cc(C(=O)C2COc3ccc(Cl)cc3C2)c2ccc(-c3cn[nH]c3Cl)cc21` (stereo not drawn) [Compound 3-10], the IC50 in data set [1] was 21 to 200 nM; in data set [3] it was above 501 nM.

Consider `COc1[nH]ncc1-c1ccc2c(C(=O)C3COc4ccc(Cl)cc4O3)cn(CCN(C)C)c2c1` (stereo not drawn) [Compound 5-42], for which the results for the IC50 in data set [1] and in data set [3] were 201 to 500 nM and above 501 nM, respectively.

Take `CN1CC(Cn2cc(C(=O)C3COc4ccc(Cl)cc4C3)c3ccc(-c4cn[nH]c4F)cc32)C1` (stereo not drawn) [Compound 1-43]: the half-inhibitory concentration (IC50) in data set [1] was below 20 nM; in data set [3], 21 to 200 nM.

Regarding `CCN(C)CCn1cc(C(=O)[C@@H]2COc3ccc(OC)cc3C2)c2ccc(-c3cn[nH]c3Cl)cc21` [Compound 3-26], the IC50 in data set [1] is below 20 nM; in data set [3], above 501 nM.

In the case of `CCN(C)CCn1cc(C(=O)C2COc3ccc(OC)cc3C2)c2ccc(-c3cn[nH]c3F)cc21` (stereo not drawn) [Compound 3-30], the results for the IC50 in data set [1] and in data set [3] were 21 to 200 nM and 201 to 500 nM, respectively.

Regarding `COc1ccc2c(c1)CC(C(=O)c1cn(C[C@@H]3CCN3)c3cc(-c4cn[nH]c4OC)ccc13)CO2` (stereo partly drawn) [Compound 1-41], the concentration for half-maximal inhibition (IC50) is below 20 nM in data set [1] and 201 to 500 nM in data set [3].

The values are drawn from patent US20240360139A1, “BLOOD BRAIN BARRIER PENETRATING SELECTIVE INHIBITORS OF ROCK2 PROTEIN KINASES AND USES THEREOF” (GENOSCO Inc., priority 2023, published 2024).
